# Assay results reported in patent publication EP3281644A1, “STABLE FLUORESCENT NANOVESICLES, METHOD FOR OBTAINING THEM AND USES THEREOF” (Consejo Superior De Investigaciones Científicas, priority 2016, dated 2018).
# Assays:
# [1] = Photochemical decomposition quantum yield under continuous laser irradiation; format: physicochemical; settings: free dye in EtOH; diode laser 660 nm
# Description: Photostabilities of DiD in EtOH and of DiD-nanovesicles were analyzed by monitoring the evolution over time of absorbance of the samples under continuous laser irradiation. The data are shown in Table below and are also represented in Figure 8. Additional column in Table 1 for rows of DiD
# The quantum yields of photoreaction were calculated following the method proposed by Belfield et al. "Photophysical and photochemical properties of 5,7-di-methoxycoumarin under one- and two-photon excitation". J. Phys. Org. Chem. 16, 69-78 (2003).
# Sample photostability under continuous-wave excitation was determined by measuring the photochemical decomposition quantum yield. […]
# Quantum yields of photochemical decomposition were measured in ethanol (for DID) and water (FI, NDB and all nanovesicle samples) using absorption and fluorescence methods, where the number of bleached molecules is determined by a kinetic decrease in absorbance or fluorescence intensity under the assumption that fluorescence and absorbance of the photoproducts are negligible in the spectral region of dye fluorescence and main absorption band. Fluorescence method was used to estimate the photostability of dilute samples (with maximum absorbance < 0.1), while photochemical decomposition quantum yields of concentrated solutions (with maximum absorbance ≈ 1) were determined by absorption method. […]
# [2] = reference standard; in methanol; cited from earlier work
Compound,Photodecomposition QY*10^-5 [1],"QY, Φ [2] [%]"
"CCCCCCCCCCCCCCCCCCN1C(=CC=CC=CC2=[N+](CCCCCCCCCCCCCCCCCC)c3ccccc3C2(C)C)C(C)(C)c2ccccc21.[O-][Cl+3]([O-])([O-])[O-] [DiD EtOH, 1,1'-dioctadecyl-3,3,3',3'-tetramethyl-indodicarbocyanine perchlorate]","<0,008 *10^-5",
cresyl violet,,56
